The numbers were not newly measured in patent US7674912B2, “Pro-drugs of N-thiazol-2-yl-benzamide derivatives” (priority 2005, dated 2010), which cites them from elsewhere.

Where two headings read alike, the source gives them in different places.

For data set [1], the system named is non-human primates treated with MPTP.
In another data set the test system is mice. As to conditions: for total immobility time: mouse tail suspension test.
Data set [2] concerns MPTP treated mice and 6-OHDA-lesioned rats.
For data set [3], the system named is unilateral 6-OHDA (6-hydroxydopamine) lesioned mice and rats. The conditions noted are these: elicited by a subthreshold dose of levodopa, unilateral 6-OHDA lesioned mice and rats.
Where [4] appears, read: mice previously screened for having high immobility time.

For `CCn1c(=O)c2c(nc(/C=C/c3ccc(OC)c(OC)c3)n2C)n(CC)c1=O` [KW-6002, 8-[(1E)-2-(3,4-dimethoxyphenyl)ethenyl]-1,3-diethyl-3,7-dihydro-7-methyl-1H-purine-2,6-dione], in data set [1] (in vivo), the dyskinesias result is given as “without causing dyskinesias”. Moreover, the “motor impairment induced by MPTP” value in data set [1] (non-human primates) was “significantly improves motor impairment”. The total immobility time result in the data set on mice was “reduced the total immobility time”. Also, in data set [2], the “functional loss of dopaminergic nerve terminals in the striatum” value was “prevented functional loss of dopaminergic nerve terminals in the striatum” and the “gliosis induced around degenerating neurons” value is listed as “prevented gliosis”. For the same molecule, in data set [3], the contralateral rotations result is “enhance contralateral rotations”.
Turning to `Nc1nc2c(cnn2CCc2ccccc2)c2nc(-c3ccco3)nn12` [SCH58261, 2-(2-furanyl)-7-(2-phenylethyl)-7H-pyrazolo[4,3-e][1,2,4]triazolo[1,5-c]pyrimidin-5-amine], the values for the immobility result in the data set on mice (setting [4]) and in the data set on mice (mice selectively bred for their helplessness) were “reduce immobility” and “reduced immobility”, respectively. The total immobility time result in the data set on mice was “reduced the total immobility time”. Besides, in data set [3], the contralateral rotations result is recorded as “enhance contralateral rotations”.
As to `Nc1nc(NCCc2ccc(O)cc2)nc2nc(-c3ccco3)nn12` [ZM241385, 4-(2-[7-amino-2-(2-furyl)[1,2,4]triazolo[2,3-a][1,3,5]triazin-5-ylamino]-ethyl)phenol], the immobility result in the data set with mice (setting [4]) is on record as “reduce immobility”.
